# Test results reported in article PMC4586642, “CYP450 Enzyme-Mediated Metabolism of TCAS and Its Inhibitory and Induced Effects on Metabolized Enzymes in Vitro” (International Journal of Environmental Research and Public …, 2015).
# What was measured:
# [1] = molecular target: CYP1A2 (Homo sapiens, UniProt P05177); assay: TCAS incubation with human liver microsomes plus CYP1A2-selective inhibitor; settings: pH 7.4, probe TCAS (100 µM)
# Procedure: (§5) Inhibitor stock solutions prepared in appropriate solvents accounted for 0.4% organic solvent in the final incubation for 30 min at 37 °C with gentle shaking before stopping with 400 μL ice-cold stop solution (1:1 (v:v) mixture of acetonitrile and methanol) containing 50 ng/mL tolbutamide (IS). After vortexing for 30 seconds, and centrifugation at 16,000 g for 10 min, the supernatant was collected and analyzed by LC-MS/MS as described above. […] All incubations were conducted in triplicate.
# [2] = molecular target: CYP2C9 (Homo sapiens, UniProt P11712); assay: in vitro; settings: microsomes, pH 7.4
# Procedure: as §5
# [3] = tested on: CYP1A; assay: Induction of CYP1A activity in sandwich-cultured rat hepatocytes (phenacetin probe); settings: 2.5 µM, 72 h
# Procedure: (§1) Rat primary hepatocytes were prepared according to a modified, two-step collagenase perfusion method. Viability of hepatocyte was determined by Trypan Blue exclusion. Only those hepatocyte preparations with viability greater than 90% were used for further studies. Hepatocyte suspensions were prepared with DMEM-F12 containing 10% FBS, 100 U/mL penicillin, 100 µg/mL streptomycin, 1 µM DEX and 4 µg/mL insulin. Then, hepatocyte suspensions were seeded into the pre-coated wells at a density of 1 × 10^6 cells/well in 24-well plates. […] Medium was changed daily. On day 4, the cultured hepatocytes were washed twice with Hank’s balanced salt solution containing 25 mM HEPES and incubated with 0.5 mL of the same buffer containing 50 μM phenacetin and 5 μM midazolam at 37 °C for 1h. At the end of incubation, 0.5 mL aliquots of the media were transferred to 1.5-mL test tubes and stored at −20 °C until analysis. All incubations were conducted in triplicate.
# (§2) Results were analyzed by a two-factor ANOVA. A p < 0.05 was considered statistically significant. […] Microsoft Excel (Microsoft, Redmond, WA, USA) was used to calculate IC50 estimates by linear transformation of the raw data. The data were corrected for both background and control activities.
# [4] = tested on: T1, CYP2C9 (2C9); assay: Inhibition of isoform-selective probe metabolism (phenacetin 1A2, tolbutamide 2C9, bupropion 2B6, dextromethorphan 2D6, midazolam 3A) in rat liver microsomes (0.4 mg/mL) with an NADPH-generating system, 0.5-500 uM TCAS, 30 min at 37 °C, LC-MS/MS readout.; format: biochemical; settings: SD, n = 3
# T1 construct: native enzyme in rat liver microsomes (RLMs)
# Procedure: (§3) The inhibitory effects of TCAS on the activities of CYP1A2, CYP2C9, CYP2D6, CYP2B6 and CYP3A were tested in RLMs and HLMs using probes selective for each isoform. The reaction probes used were as follows: phenacetin for CYP1A2; tolbutamide for CYP2C9; dextromethorphan for CYP2D6; midazolam for CYP3A and bupropion for CYP2B6. Incubation conditions specific to each isoform were linear with time, substrate, and protein concentrations as detailed in our previous studies. Isoform-specific substrate probes were incubated in duplicate at 37 °C with RLMs and HLMs and an NADPH-generating system in the absence (control) or presence of various concentrations (0.5, 1.5, 5, 15, 50, 100, and 500 µM) of TCAS. A 5-min pre-incubation was carried out before the reaction was initiated by adding 0.4 mg/mL of RLMs and HLMs. After incubation for 30 min, the reaction was terminated with 400 μL of ice-cold stop solution.
# (§4) Results were analyzed by a two-factor ANOVA. A p < 0.05 was considered statistically significant.
# [5] = tested on: T2, CYP3A4 (3A4); assay: as above; format: biochemical; settings: SD, n = 3
# T2 construct: native enzyme in rat liver microsomes (RLMs)
# Procedure: as §3, §4
# [6] = tested on: T3, CYP2D6 (2D6); assay: as above; format: biochemical; settings: SD, n = 3
# T3 construct: native enzyme in rat liver microsomes (RLMs)
# Procedure: as §3, §4
# [7] = tested on: T4, CYP2B6 (2B6); assay: as above; format: biochemical; settings: SD, n = 3
# T4 construct: native enzyme in rat liver microsomes (RLMs)
# Procedure: as §3, §4
# [8] = tested on: CYP3A; assay: Induction of CYP3A activity in sandwich-cultured rat hepatocytes (midazolam probe); settings: 1 mM, 72 h
# Procedure: as §1, §2
# Chain of CYP2C9 (P11712 whole entry): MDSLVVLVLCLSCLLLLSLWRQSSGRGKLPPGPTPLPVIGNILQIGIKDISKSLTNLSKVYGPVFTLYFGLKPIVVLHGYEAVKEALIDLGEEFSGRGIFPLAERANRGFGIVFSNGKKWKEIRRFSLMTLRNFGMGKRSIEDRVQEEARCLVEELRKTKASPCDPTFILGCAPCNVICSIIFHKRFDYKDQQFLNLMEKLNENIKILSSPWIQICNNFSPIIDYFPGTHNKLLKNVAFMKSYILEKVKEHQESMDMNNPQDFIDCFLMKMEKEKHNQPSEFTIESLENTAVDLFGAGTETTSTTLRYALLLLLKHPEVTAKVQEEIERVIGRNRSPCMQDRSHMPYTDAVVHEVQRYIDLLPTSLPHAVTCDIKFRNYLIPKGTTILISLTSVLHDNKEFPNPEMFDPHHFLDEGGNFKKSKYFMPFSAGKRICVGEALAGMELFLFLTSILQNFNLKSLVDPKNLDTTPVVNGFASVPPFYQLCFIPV
# Chain of CYP1A2 (P05177 whole entry): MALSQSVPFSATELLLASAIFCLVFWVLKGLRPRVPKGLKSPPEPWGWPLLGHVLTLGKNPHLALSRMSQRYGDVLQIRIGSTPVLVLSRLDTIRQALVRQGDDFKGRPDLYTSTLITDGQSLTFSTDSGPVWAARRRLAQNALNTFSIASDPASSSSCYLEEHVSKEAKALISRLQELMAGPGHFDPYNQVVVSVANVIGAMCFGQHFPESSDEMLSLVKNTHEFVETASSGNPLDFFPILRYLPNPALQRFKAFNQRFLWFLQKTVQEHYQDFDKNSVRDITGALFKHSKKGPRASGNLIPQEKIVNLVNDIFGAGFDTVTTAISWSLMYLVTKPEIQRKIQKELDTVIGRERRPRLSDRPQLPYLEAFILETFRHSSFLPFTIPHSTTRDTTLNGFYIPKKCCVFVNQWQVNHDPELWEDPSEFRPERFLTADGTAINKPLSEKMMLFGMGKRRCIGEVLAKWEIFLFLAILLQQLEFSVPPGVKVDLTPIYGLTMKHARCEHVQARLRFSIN
compound,measurement,setting,value
O=c1cc(-c2ccccc2)oc2c1ccc1ccccc12 [α-Naphthoflavone],"inhibition at 30 min, 6 µM",[1],54.9%
Nc1ccc(S(=O)(=O)Nc2ccnn2-c2ccccc2)cc1 [sulfaphenazole],"inhibition at 30 min, 60 µM",[2],51.7%
"Cc1ccc2cc3c(ccc4ccccc43)c3c2c1CC3 [3-MC, 3-methylcholanthrene]",mean induction of CYP1A activity compared with control cells,[3],23.8 fold
"O=S(=O)(O)c1cc2c(O)c(c1)Sc1cc(S(=O)(=O)O)cc(c1O)Sc1cc(S(=O)(=O)O)cc(c1O)Sc1cc(S(=O)(=O)O)cc(c1O)S2 [TCAS, Thiacalix[4]arene tetrasulfonate]",IC50,[4],383 ± 23.5 µM
same,IC50,[5],2420 ± 235 µM
same,IC50,[6],196 ± 17.6 µM
same,IC50,[7],1700 ± 103 µM
"CCC1(c2ccccc2)C(=O)NC(=O)NC1=O [PB, phenobarbital]",mean induction of CYP3A activity compared with control cells,[8],5.1 fold
